Measurements published in patent US12540131B2 (Merck Sharp & Dohme LLC, priority 2019, dated 2026).

Target: GST tagged truncated human mutant G2019S LRRK2 (Homo sapiens (Human), UniProt Q5S007, G2019S)
Test: LRRK2 Km ATP LanthaScreen Assay
Format: biochemical
Details: G2019S LRRK2, 134 μM ATP (Km ATP), mean values
Method in brief: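 Enzyme (GST-tagged, truncated) was preincubated with compound for 15 min at RT in 50 mM Tris pH 8.5, 10 mM MgCl2, 0.01% Brij-35, 1 mM EGTA, 2 mM DTT and 0.05 mM orthovanadate. Fluorescein-LRRKtide and 134 μM ATP (Km) were then added for 90 min. EDTA and Tb-anti-pERM antibody stopped the reaction; the TR-FRET 520/495 ratio gave 4-parameter IC50s, reported as mean pIC50.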

Sequence of GST tagged truncated human mutant G2019S LRRK2 (Q5S007 970-2527 G2019S): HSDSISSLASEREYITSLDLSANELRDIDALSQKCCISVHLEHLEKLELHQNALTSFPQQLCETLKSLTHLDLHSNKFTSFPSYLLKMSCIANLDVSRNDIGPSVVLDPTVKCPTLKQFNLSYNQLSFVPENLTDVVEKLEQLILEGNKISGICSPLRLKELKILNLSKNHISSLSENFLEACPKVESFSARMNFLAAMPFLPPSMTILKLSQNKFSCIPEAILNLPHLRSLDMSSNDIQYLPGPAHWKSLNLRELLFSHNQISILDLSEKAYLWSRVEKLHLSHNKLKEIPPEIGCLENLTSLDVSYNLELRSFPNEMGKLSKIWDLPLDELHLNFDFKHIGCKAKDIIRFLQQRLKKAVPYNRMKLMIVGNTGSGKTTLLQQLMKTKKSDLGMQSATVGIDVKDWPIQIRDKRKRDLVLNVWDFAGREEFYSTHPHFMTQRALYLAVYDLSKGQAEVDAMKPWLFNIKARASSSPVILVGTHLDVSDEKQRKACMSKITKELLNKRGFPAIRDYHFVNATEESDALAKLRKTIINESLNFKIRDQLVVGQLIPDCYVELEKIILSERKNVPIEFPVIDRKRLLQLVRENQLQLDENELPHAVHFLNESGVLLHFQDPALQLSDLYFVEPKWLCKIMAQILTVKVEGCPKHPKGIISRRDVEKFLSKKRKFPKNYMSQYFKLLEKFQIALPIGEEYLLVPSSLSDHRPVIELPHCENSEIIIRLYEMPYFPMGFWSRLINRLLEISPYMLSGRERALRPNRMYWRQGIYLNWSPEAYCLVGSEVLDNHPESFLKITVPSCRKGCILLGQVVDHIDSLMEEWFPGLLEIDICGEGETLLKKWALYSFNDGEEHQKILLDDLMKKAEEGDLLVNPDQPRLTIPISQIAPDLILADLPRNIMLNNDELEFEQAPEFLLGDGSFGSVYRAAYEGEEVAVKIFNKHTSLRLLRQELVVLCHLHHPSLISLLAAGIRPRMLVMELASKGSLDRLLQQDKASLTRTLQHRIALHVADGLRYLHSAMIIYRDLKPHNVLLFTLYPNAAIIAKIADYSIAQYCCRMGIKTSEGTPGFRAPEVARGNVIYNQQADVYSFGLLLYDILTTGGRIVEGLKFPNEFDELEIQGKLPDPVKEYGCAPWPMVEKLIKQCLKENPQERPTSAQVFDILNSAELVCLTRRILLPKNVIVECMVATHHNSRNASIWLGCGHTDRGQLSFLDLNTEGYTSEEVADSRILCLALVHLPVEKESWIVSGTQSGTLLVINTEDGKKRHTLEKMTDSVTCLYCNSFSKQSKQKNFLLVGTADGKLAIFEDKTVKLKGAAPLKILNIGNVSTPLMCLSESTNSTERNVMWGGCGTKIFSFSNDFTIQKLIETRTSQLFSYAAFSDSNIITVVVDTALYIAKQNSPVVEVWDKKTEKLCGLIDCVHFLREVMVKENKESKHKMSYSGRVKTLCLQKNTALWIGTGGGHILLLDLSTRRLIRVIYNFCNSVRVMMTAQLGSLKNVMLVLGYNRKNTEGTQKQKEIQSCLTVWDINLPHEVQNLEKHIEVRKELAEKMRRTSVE

Row | Compound | LRRK2 pIC50
1 | [2H]C1(N2CCC(c3cc4nc(Nc5cnn(C6CC6)c5Cl)ncc4cc3Cl)CC2)COC1 [Ex-4.57, 6-chloro-N-(5-chloro-1-cyclopropyl-1H-pyrazol-4-yl)-7-(1-(oxetan-3-yl-3-d)piperidin-4-yl)quinazolin-2-amine] | >9.20
2 | [2H]C1([2H])OC([2H])([2H])C1([2H])N1CCC(c2cc3nc(Nc4cnn(CC(C)(C)O)c4Cl)ncc3cc2Cl)CC1 [Ex-4.58, 1-(5-chloro-4-((6-chloro-7-(1-(oxetan-3-yl-d5)piperidin-4-yl)quinazolin-2-yl)amino)-1H-pyrazol-1-yl)-2-methylpropan-2-ol] | >9.20
3 | [2H]C1(N2CCC(c3cc4nc(Nc5cnn(CC(C)(C)O)c5Cl)ncc4cc3Cl)CC2)COC1 [Ex-4.59, 1-(5-chloro-4-((6-chloro-7-(1-(oxetan-3-yl-3-d)piperidin-4-yl)quinazolin-2-yl)amino)-1H-pyrazol-1-yl)-2-methylpropan-2-ol] | >9.20
4 | CN1CCC(c2cc3nc(Nc4cnn(CC(C)(C)O)c4Cl)ncc3cc2Cl)CC1 [Ex-4.72, 1-(5-chloro-4-{[6-chloro-7-(1-methylpiperidin-4-yl)quinazolin-2-yl]amino}-1H-pyrazol-1-yl)-2-methylpropan-2-ol] | 8.92
5 | N#CC1(CN2CCC(c3cc4nc(Nc5cnn(C6CC6)c5Cl)ncc4cc3Cl)CC2)CC1 [Ex-4.78, 1-[(4-{6-chloro-2-[(5-chloro-1-cyclopropyl-1H-pyrazol-4-yl)amino]quinazolin-7-yl}piperidin-1-yl)methyl]cyclopropane-1-carbonitrile] | 7.95
6 | Cc1cc2cnc(Nc3cnn(CC(C)(C)O)c3Cl)nc2cc1C1CCN(C2COC2)CC1 [Ex-4.80, 1-[5-chloro-4-({6-methyl-7-[1-(oxetan-3-yl)piperidin-4-yl]quinazolin-2-yl}amino)-1H-pyrazol-1-yl]-2-methylpropan-2-ol] | 8.87
7 | Cc1cc2cnc(Nc3cnn(C4CC4)c3Cl)nc2cc1C1CCN(C2COC2)CC1 [Ex-4.84, N-(5-chloro-1-cyclopropyl-1H-pyrazol-4-yl)-6-methyl-7-[1-(oxetan-3-yl)piperidin-4-yl]quinazolin-2-amine] | 9.01
8 | CC(C)(O)Cn1ncc(Nc2ncc3cc(Cl)c(C4(F)CCN(C5COC5)CC4)cc3n2)c1Cl [Ex-4.86, 1-[5-chloro-4-({6-chloro-7-[4-fluoro-1-(oxetan-3-yl)piperidin-4-yl]quinazolin-2-yl}amino)-1H-pyrazol-1-yl]-2-methylpropan-2-ol] | 8.09
9 | Clc1cc2cnc(Nc3cnn(C4CCC4)c3Cl)nc2cc1C1CCNCC1 [Ex-4.89, 6-chloro-N-(5-chloro-1-cyclobutyl-1H-pyrazol-4-yl)-7-(piperidin-4-yl)quinazolin-2-amine] | 9.13
10 | Clc1cc2cnc(Nc3cnn(CC4CC4)c3Cl)nc2cc1C1CCNCC1 [Ex-4.90, 6-chloro-N-[5-chloro-1-(cyclopropylmethyl)-1H-pyrazol-4-yl]-7-(piperidin-4-yl)quinazolin-2-amine] | >9.20
11 | FC(F)Cn1ncc(Nc2ncc3cc(Cl)c(C4CCNCC4)cc3n2)c1Cl [Ex-4.93, 6-chloro-N-[5-chloro-1-(2,2-difluoroethyl)-1H-pyrazol-4-yl]-7-(piperidin-4-yl)quinazolin-2-amine] | 8.70
12 | CC(C)(O)Cn1ncc(Nc2ncc3cc(Cl)c(C4CCNCC4)cc3n2)c1Cl [Ex-4.94, 1-(5-chloro-4-{[6-chloro-7-(piperidin-4-yl)quinazolin-2-yl]amino}-1H-pyrazol-1-yl)-2-methylpropan-2-ol] | 8.46
13 | N#CCCN1CCC(c2cc3nc(Nc4cnn(CC(F)F)c4Cl)ncc3cc2Cl)CC1 [Ex-4.95, 3-[4-(6-chloro-2-{[5-chloro-1-(2,2-difluoroethyl)-1H-pyrazol-4-yl]amino}quinazolin-7-yl)piperidin-1-yl]propanenitrile] | >9.20
14 | Cc1cc(Nc2ncc3cc(Cl)c(C4CCN(C5CS(=O)(=O)C5)CC4)cc3n2)sn1 [Ex-4.96, 3-(4-(6-chloro-2-((3-methylisothiazol-5-yl)amino)quinazolin-7-yl)piperidin-1-yl)thietane 1,1-dioxide] | 9.09
15 | CCN1CCC(c2cc3nc(Nc4cnn(CC(C)(C)O)c4Cl)ncc3cc2Cl)CC1 [Ex-4.97, 1-(5-chloro-4-{[6-chloro-7-(1-ethylpiperidin-4-yl)quinazolin-2-yl]amino}-1H-pyrazol-1-yl)-2-methylpropan-2-ol] | 8.57
16 | CC1(N2CCC(c3cc4nc(Nc5cnn(CC(F)F)c5Cl)ncc4cc3Cl)CC2)COC1 [Ex-4.98, 6-chloro-N-[5-chloro-1-(2,2-difluoroethyl)-1H-pyrazol-4-yl]-7-[1-(3-methyloxetan-3-yl)piperidin-4-yl]quinazolin-2-amine] | >9.20

Row | Compound | LRRK2 pIC50
17 | Clc1cc2cnc(Nc3cnn(C4CC4)c3Cl)nc2cc1C1CC2CCC(C1)N2C1COC1 (stereo not drawn) [Ex-4.112, cis or trans 6-chloro-N-(5-chloro-1-cyclopropyl-1H-pyrazol-4-yl)-7-(8-(oxetan-3-yl)-8-azabicyclo[3.2.1]octan-3-yl)quinazolin-2-amine] | >9.20
18 | Clc1cc2cnc(Nc3cnn(C4CC4)c3Cl)nc2cc1C1CC2COCC(C1)N2C1COC1 (stereo not drawn) [Ex-4.113, cis or trans 6-chloro-N-(5-chloro-1-cyclopropyl-1H-pyrazol-4-yl)-7-(9-(oxetan-3-yl)-3-oxa-9-azabicyclo[3.3.1]nonan-7-yl)quinazolin-2-amine] | 8.11
19 | CC1CC(c2cc3nc(Nc4cnn(C5CC5)c4Cl)ncc3cc2Cl)CC(C)N1C1COC1 (stereo not drawn) [Ex-4.118, cis or trans 6-chloro-N-(5-chloro-1-cyclopropyl-1H-pyrazol-4-yl)-7-(2,6-dimethyl-1-(oxetan-3-yl)piperidin-4-yl)quinazolin-2-amine] | 8.46
20 | Clc1cc2cnc(Nc3cnn(C4CC4)c3Cl)nc2cc1C1CC2(C1)CN(C1COC1)C2 [Ex-4.119, 6-chloro-N-(5-chloro-1-cyclopropyl-1H-pyrazol-4-yl)-7-(2-(oxetan-3-yl)-2-azaspiro[3.3]heptan-6-yl)quinazolin-2-amine] | 7.96
21 | Cc1c(Nc2ncc3cc(Cl)c(C4CCN(C5CC[C@@H]6C[C@H]56)CC4)cc3n2)cnn1C1CC1 (stereo partly drawn) [Ex-4.172, 7-{1-[(1S,5R)-bicyclo[3.1.0]hexan-2-yl]piperidin-4-yl}-6-chloro-N-(1-cyclopropyl-5-methyl-1H-pyrazol-4-yl)quinazolin-2-amine] | 7.53
22 | Cc1c(Nc2ncc3cc(Cl)c(C4CCN(C[C@@H](O)c5ccccc5)CC4)cc3n2)cnn1C1CC1 [Ex-4.193, (1S)-2-(4-{6-chloro-2-[(1-cyclopropyl-5-methyl-1H-pyrazol-4-yl)amino]quinazolin-7-yl}piperidin-1-yl)-1-phenylethan-1-ol] | 9.04
23 | Cc1c(Nc2ncc3cc(Cl)c(C4CCN(C[C@H](O)c5cccc(Cl)c5)CC4)cc3n2)cnn1C1CC1 [Ex-4.194, (1R)-2-(4-{6-chloro-2-[(1-cyclopropyl-5-methyl-1H-pyrazol-4-yl)amino]quinazolin-7-yl}piperidin-1-yl)-1-(3-chlorophenyl)ethan-1-ol] | 8.28
24 | Cc1c(Nc2ncc3cc(Cl)c(C4CCN(C[C@H](O)c5cccc(F)c5)CC4)cc3n2)cnn1C1CC1 [Ex-4.195, (1R)-2-(4-{6-chloro-2-[(1-cyclopropyl-5-methyl-1H-pyrazol-4-yl)amino]quinazolin-7-yl}piperidin-1-yl)-1-(3-fluorophenyl)ethan-1-ol] | 8.24
25 | Cc1c(Nc2ncc3cc(Cl)c(C4CCN(C[C@@H](O)c5cccc(F)c5)CC4)cc3n2)cnn1C1CC1 [Ex-4.196, (1S)-2-(4-{6-chloro-2-[(1-cyclopropyl-5-methyl-1H-pyrazol-4-yl)amino]quinazolin-7-yl}piperidin-1-yl)-1-(3-fluorophenyl)ethan-1-ol] | 8.87
26 | Cc1c(Nc2ncc3cc(Cl)c(C4CCN(C[C@@H](O)c5cc(F)cc(F)c5)CC4)cc3n2)cnn1C1CC1 [Ex-4.197, (1S)-2-(4-{6-chloro-2-[(1-cyclopropyl-5-methyl-1H-pyrazol-4-yl)amino]quinazolin-7-yl}piperidin-1-yl)-1-(3,5-difluorophenyl)ethan-1-ol] | 8.76
27 | Cc1c(Nc2ncc3cc(Cl)c(C4CCN(C[C@H](O)c5cc(F)cc(F)c5)CC4)cc3n2)cnn1C1CC1 [Ex-4.198, (1R)-2-(4-{6-chloro-2-[(1-cyclopropyl-5-methyl-1H-pyrazol-4-yl)amino]quinazolin-7-yl}piperidin-1-yl)-1-(3,5-difluorophenyl)ethan-1-ol] | 7.88
28 | Cc1c(Nc2ncc3cc(Cl)c(C4CCN(C[C@H](O)c5ccc(F)c(F)c5)CC4)cc3n2)cnn1C1CC1 [Ex-4.199, (1R)-2-(4-{6-chloro-2-[(1-cyclopropyl-5-methyl-1H-pyrazol-4-yl)amino]quinazolin-7-yl}piperidin-1-yl)-1-(3,4-difluorophenyl)ethan-1-ol] | 7.96
29 | Cc1c(Nc2ncc3cc(Cl)c(C4CCN(C[C@@H](O)c5ccc(F)c(F)c5)CC4)cc3n2)cnn1C1CC1 [Ex-4.200, (1S)-2-(4-{6-chloro-2-[(1-cyclopropyl-5-methyl-1H-pyrazol-4-yl)amino]quinazolin-7-yl}piperidin-1-yl)-1-(3,4-difluorophenyl)ethan-1-ol] | 8.76
30 | Cc1c(Nc2ncc3cc(Cl)c(C4CCN(C[C@H](O)c5ccc(F)cc5F)CC4)cc3n2)cnn1C1CC1 [Ex-4.201, (1R)-2-(4-{6-chloro-2-[(1-cyclopropyl-5-methyl-1H-pyrazol-4-yl)amino]quinazolin-7-yl}piperidin-1-yl)-1-(2,4-difluorophenyl)ethan-1-ol] | 8.19
31 | Cc1c(Nc2ncc3cc(Cl)c(C4CCN(C[C@@H](O)c5ccccc5F)CC4)cc3n2)cnn1C1CC1 [Ex-4.202, (1S)-2-(4-{6-chloro-2-[(1-cyclopropyl-5-methyl-1H-pyrazol-4-yl)amino]quinazolin-7-yl}piperidin-1-yl)-1-(2-fluorophenyl)ethan-1-ol] | 8.47
